Consider 22 molecules from patent publication US6699877B2 (Gruenenthal GmbH, priority 2000, dated 2004).

The target of the first experiment is T1, glycine binding site of the NMDA receptor channel (Rattus norvegicus, UniProt P35439).
T1 construct: from tissue; host or cells: rat brain cortex and hippocampus membrane homogenate
In words: Receptor binding, displacement of (3H)-MDL 105.519 on rat cerebral membrane homogenates. The settings on record: 10 μmol/l test substance; 1 nmol/l (3H)-MDL 105.519. The procedure:
Receptor Binding (Glycine Binding Site of the NMDA Receptor Channel)
Experiments to determine the affinity of the compounds according to the invention of Formula I to the glycine binding site of the NMDA receptor channel were carried out on cerebral membrane homogenates (homogenate of Cortex- and Hippocampus-Areal from the brain of male rats, Wistar strain) (B. M. Baron, B. W. Siegel, B. L. Harrison, R. S. Gross, C. and P. Towers, Journal of Pharmacology and Experimental Therapeutics, Vol. 279, p. 62, 1996).
For this purpose, Cortex and Hippocampus from freshly removed rats' brains were dissected, homogenized in 5 mmol/l TRIS-acetate buffer, 0.32 mol/l sacharose pH 7.4 (10 ml/g fresh weight) with a Potter homogenizer (made by Braun/Melsungen, 10 piston strokes at 500 rpm) while cooling with ice and subsequently centrifuged for 10 minutes at 1,000 g and 4° C. The first supernatant material was collected and the sediment homogenized again with […] TRIS-acetate buffer, 0.32 mol/l safcharose pH 7.4 (5 ml/g original fresh weight) using the Potter homogenizer (10 piston strokes at 500 rpm) while cooling with ice and centrifuged for 10 minutes at 1,000 g and 4° C. The resultant supernatant material was combined with the supernatant material from the first centrifugation and centrifuged at 17,000 g for 20 minutes at 4° C. The supernatant material after this centrifugation was discarded, the membrane sediment taken up with 5 mmol/l TRIS-acetate buffer pH 8.0 (20 ml/g original fresh weight) and homogenized with 10 piston strokes at 500 rpm.
The membrane homogenate was then incubated for 1 hour at 4° C. and centrifuged for 30 minutes at 50,000 g and 4° C. The supernatant material was discarded and the centrifuge tube with the membrane sediment sealed with parafilm and frozen for 24 hours at −20° C. The membrane sediment was thawed on the following day, taken up with ice-cold 5 mmol/l TRIS-acetate buffer, 0.1% saponin (w/v) pH 7.0 (10 ml/g original fresh weight), homogenized with 10 piston strokes at 500 rpm and subsequently centrifuged for 20 minutes at 50,00 g and 4° C. The resultant supernatant material was discarded, the sediment taken up in a small volume with 5 mmol/l TRIS-acetate buffer pH 7.0 (about 2 ml/g original fresh weight) and homogenized again with 10 piston strokes at 500 rpm. After determining the protein content, the membrane homogenate was adjusted to a protein concentration of 10 mg protein/ml using 5 mmol/l TRIS-acetate buffer pH 7.0 and frozen in aliquots for testing.
For the receptor binding test, aliquots were thawed, diluted 1:10 with 5 mmol/l TRIS-acetate buffer pH 7.0, homogenized with 10 piston strokes at 500 rpm using the potter homogenizer (10 piston strokes at 500 rpm) while cooling with ice and centrifuged for 60 minutes at 55,000 g at 4° C. The supernatant material was decanted, the membrane sediment adjusted to a protein concentration of 1 mg/ml with ice-cold 50 mmol/l TRIS-acetate buffer pH 7.0, homogenized again with 10 piston strokes at 500 rpm and kept in suspension in the ice bath while stirring on a magnetic stirrer. 100 μl of this membrane homogenate per 1 ml of feedstock was used in each case in the receptor binding test (0.1 mg protein/ml in the final batch).
In the binding test, 50 mmol/l TRIS-acetate buffer pH 7.0 was used as buffer and 1 nmol/l (^3H)-MDL 105.519 (B. M. Baron et al 1996) was used as radioactive ligand. The proportion of unspecific binding was determined in the presence of 1 mmol/l glycine.
In further batches, the compounds according to the invention were added in concentration series and the displacement of the radioactive ligand from its specific binding to the glycine binding site of the NMDA receptor channel determined. The respective triple batches were incubated for 120 minutes at 4° C. and then harvested to determine the radioactive ligands bound to the membrane homogenate by filtration through glass fiber filter mats (GF/B). […]
Consider `O=C(O)C1CC(c2ccc(Cl)cc2)c2c(Cl)cc(Cl)cc2N1` (stereo not drawn) [Example 99, 5,7-dichloro-4-(4-chlorophenyl)-1,2,3,4-tetrahydroquinoline-2-carboxylic acid], for which the “Displacement (%, 10 μmol/l) of radioactive ligand from specific binding” value was 43%.

Still in this experiment, the particulars now being: 10 μmol/l test substance; 1 nmol/l (3H)-MDL 105.519; read-out: Displacement (%, 10 μmol/l) of radioactive ligand from specific binding.
Take `CCOC(=O)C1CC(c2ccccc2F)c2c(Cl)cc(Cl)cc2N1` (stereo not drawn) [Example 26, 5,7-dichloro-4-(2-fluorophenyl)-1,2,3,4-tetrahydroquinoline-2-carboxylic Acid Ethyl Ester]: the inhibition at 10 µM turned out to be 43%. As to `CCOC(=O)C1CC(c2ccccc2Cl)c2c(Cl)cc(Cl)cc2N1` (stereo not drawn) [Example 33, 5,7-dichloro-4-(2-chlorophenyl)-1,2,3,4-tetrahydroquinoline-2-carboxylic Acid Ethyl Ester], the inhibition at 10 µM worked out at 40%. With `O=C(O)C1CC(c2ccc(Br)cc2)c2cc(Cl)cc(F)c2N1` (stereo not drawn) [Example 85, 4-(4-bromophenyl)-6-chloro-8-fluoro-1,2,3,4-tetrahydroquinoline-2-carboxylic acid], the inhibition at 10 µM amounted to 61%. The same measure, in the same setting: the same measure for `Cc1ccc(C2CC(C(=O)O)Nc3c2ccc(Cl)c3Cl)c(C)c1` (stereo not drawn) [Example 86, 7,8-dichloro-4-(2,4-dimethylphenyl)-1,2,3,4-tetrahydroquinoline-2-carboxylic acid]: 33%. Turning to `O=C(O)C1CC(c2ccc(Cl)cc2)c2cc(Cl)c(C(F)(F)F)cc2N1` (stereo not drawn) [Example 87, 6-chloro-4-(4-chlorophenyl)-7-trifluoromethyl-1,2,3,4-tetrahydroquinoline-2-carboxylic acid], the inhibition at 10 µM stood at 37%.

As for `CCOC(=O)C1Nc2ccc(C#N)cc2C2c3ccccc3CC12` (stereo not drawn) [Example 88, 2-cyano-5,6a,7,11b-tetrahydro-6H-indeno[2,1-c]quinoline-6-carboxylic acid ethyl ester], the inhibition at 10 µM worked out at 34%. The same measure, in the same setting: the same measure for `N#Cc1ccc2c(c1)C(c1ccccc1Cl)CC(C(=O)O)N2` (stereo not drawn) [Example 89, 4-(2-chlorophenyl)-6-cyano-1,2,3,4-tetrahydroquinoline-2-carboxylic acid]: 30%. Turning to `CCOC(=O)C1Nc2c(Cl)cc(Br)cc2C(c2ccccc2)C1C` (stereo not drawn) [Example 90, 6-bromo-8-chloro-3-methyl-4-phenyl-1,2,3,4-tetrahydroquinoline-2-carboxylic acid ethyl ester], the inhibition at 10 µM was found to be 46%. For the molecule `Cc1ccc(C2CC(C(=O)O)Nc3c(Cl)cc(Br)cc32)c(C)c1` (stereo not drawn) [Example 91, 6-bromo-8-chloro-4-(2,4-dimethylphenyl)-1,2,3,4-tetrahydroquinoline-2-carboxylic acid], the inhibition at 10 µM turned out to be 46%. Still for that read-out and setting: the same measure for `O=C(O)C1CC(c2ccccc2Br)c2cc(Br)cc(Cl)c2N1` (stereo not drawn) [Example 92, 6-bromo-4-(2-bromophenyl)-8-chloro-1,2,3,4-tetrahydroquinoline-2-carboxylic acid]: 62%; for `COc1cc(C2c3cc(SC)ccc3NC(C(=O)O)C2C)ccc1O` (stereo not drawn) [Example 93, 4-(4-hydroxy-3-methoxyphenyl)-3-methyl-6-methylsulphanyl-1,2,3,4-tetrahydroquinoline-2-carboxylic acid]: 44%.

As for `COc1ccc(C2c3cc(C#N)ccc3NC(C(=O)O)C2c2ccc(OC)cc2)cc1` (stereo not drawn) [Example 94, 6-cyano-3,4-bis-(4-methoxyphenyl)-1,2,3,4-tetrahydroquinoline-2-carboxylic acid], the inhibition at 10 µM is 55%.

For the molecule `CCOC(=O)C1Nc2c(Cl)cc(F)cc2C(c2ccc(OC)cc2)C1c1ccc(OC)cc1` (stereo not drawn) [Example 95, 8-chloro-6-fluoro-3,4-bis-(4-methoxyphenyl)-1,2,3,4-tetrahydroquinoline-2-carboxylic acid ethyl ester], the inhibition at 10 µM was 33%.

For `CCOC(=O)C1CC(c2ccc(OCc3ccccc3)c(OC)c2)c2cc(C(C)(C)C)ccc2N1` (stereo not drawn) [Example 96, 4-(4-benzyloxy-3-methoxyphenyl)-6-tert-butyl-1,2,3,4-tetrahydroquinoline-2-carboxylic acid ethyl ester], the inhibition at 10 µM worked out at 29%. Still for that read-out and setting: the same measure for `O=C(O)C1CC(c2ccc(Cl)cc2)c2c(Cl)cc(Cl)cc2N1` (stereo not drawn) [Example 97, 5,7-dichloro-4-(4-chlorophenyl)-1,2,3,4-tetrahydroquinoline-2-carboxylic acid]: 39%. Consider `O=C(O)C1CC(c2cccc(Cl)c2)c2c(Cl)cc(Cl)cc2N1` (stereo not drawn) [Example 98, 5,7-dichloro-4-(3-chlorophenyl)-1,2,3,4-tetrahydroquinoline-2-carboxylic acid], for which the inhibition at 10 µM worked out at 51%.

Take `O=C(O)C1Nc2cc(Cl)cc(Cl)c2C2c3ccccc3CCC12` (stereo not drawn) [Example 100, 1,3-dichloro-5,6,6a,7,8,12b-hexahydrobenzo[k]phenanthridine-6-carboxylic acid]: the inhibition at 10 µM is 80%.

With `O=C(O)C1Nc2cc(Cl)cc(Cl)c2C2c3ccccc3CC12` (stereo not drawn) [Example 101, 1,3-dichloro-5,6a,7,11b-tetrahydro-6H-indeno[2,1-c]quinoline-6-carboxylic acid], the inhibition at 10 µM turned out to be 98%. For the molecule `Cc1cc(C)cc(C2CC(C(=O)O)Nc3cc(Cl)cc(Cl)c32)c1` (stereo not drawn) [Example 102, 5,7-dichloro-4-(3,5-dimethyl-phenyl)-1,2,3,4-tetrahydroquinoline-2-carboxylic acid], the inhibition at 10 µM was 61%.

Another experiment deals with formalin-induced nociception. Nature of the experiment: Formalin test, rat (second/late phase). Type of experiment: in vivo. Particulars: i.p., 21.5 mg/kg, late phase. The procedure:
Experiments to determine the antinociceptive activity of the compounds according to the invention of Formula I were carried out in the formalin test on male rats (Sprague-Dawley, 150-170 g).
In the formalin test, the first (early) phase (0-15 min after formalin injection) was distinguished from the second (late) phase (15-60 min after formalin injection) (D. Dubuisson, S. G. Dennis, Pain 4, 161-174 (1977)). The early phase, as a direct reaction to the formalin injection, represents a model for acute pain while the late phase is considered as a model for persistent (chronic) pain (T. J. Coderre, J. Katz, A. L. Vaccarino, R. Melzack, Pain, Vol. 52, p. 259,1993).
The compounds according to the invention were investigated in the second phase of the formalin test to obtain information about the effects of substances in chronic/inflammatory pain.
A nociceptive reaction was induced in freely moving experimental animals by a single subcutaneous formalin injection (50 μl, 5%) into the dorsal side of the back right paw, the nociceptive reaction being portrayed by the following behavioral parameters: lifting and holding the respective paw (Score 1), shaking and twitching (Score 2), licking and biting (Score 3). The different behavioral patterns triggered by the formalin injection were recorded continuously by observing the animals in the late phase of the formalin test and were weighted differently in an evaluation. Normal behavior in which the animal loads all four paws uniformly was recorded as score 0. The moment of administration prior to the formalin injection was selected according to the method of administration of the compounds according to the invention (intraperitoneal: 15 min, intravenous: 5 min). The described behavioral patterns (Score 1 to 3) in the animals are reduced and possibly even eliminated after injection of substances which have an antinociceptive effect in the formalin test. A comparisom was made with control animals which had received vehicles (solvents) prior to formalin administration. The nociceptive behavior was calculated as a so-called pain rate (PR). The various behavioral parameters received a different weighting (Factor 0, 1, 2, 3). Calculation took place at partial intervals of 3 min according to the following formula:
Substance and vehicle groups include n=10 animals in each case. The effect of the substance was determined as a percentage change versus control on the basis of the PR calculations. The ED50 calculations were made by regression analysis.
For `CCOC(=O)C1Nc2cc(Cl)cc(Cl)c2C2C=CCC12` (stereo not drawn) [Example 1, 7,9-dichloro-3a,4,5,9b-tetrahydro-3H-cyclopenta[c]quinoline-4-carboxylic Acid Ethyl Ester], the “% inhibition of formalin-induced nociception” value (“% inhibition” for short) is 88.3%.

Turning to `CCOC(=O)C1CC(c2ccccc2F)c2c(Cl)cc(Cl)cc2N1` (stereo not drawn) [Example 26, 5,7-dichloro-4-(2-fluorophenyl)-1,2,3,4-tetrahydroquinoline-2-carboxylic Acid Ethyl Ester], the “% inhibition” value is reported as 82.6%. Turning to `CCOC(=O)C1CC(c2ccccc2Cl)c2c(Cl)cc(Cl)cc2N1` (stereo not drawn) [Example 33, 5,7-dichloro-4-(2-chlorophenyl)-1,2,3,4-tetrahydroquinoline-2-carboxylic Acid Ethyl Ester], the “% inhibition” value is 69.0%.

The experiment is the same for the next values; noted with them: i.v., 21.5 mg/kg, late phase.
As to `O=C(O)C1Nc2ccc(Cl)cc2C2C=CCC12` (stereo not drawn) [Example 4, 8-chloro-3a-4,5,9b-tetrahydro-3H-cyclo-penta[c]quinoline-4-carboxylic Acid], the “% inhibition” value was 67.1%.
